Test results from ChEMBL document CHEMBL1201862, “PubChem BioAssay data set” (2004).
Calls of active or inactive are those of the source. Rule as the data show it, for most assays here: actives have a measured EC50 and inactives only a lower limit.

Legend:
[1] = inhibitors of firefly luciferase expression or activity, dose response, H4 neuroglioma cells, luminescence (AID 1990); format: functional, cell-based
[2] = Luminescence Cell-Based Dose Response HTS to Identify Inhibitors of 5'UTR Stem-Loop Driven Prion Protein mRNA Translation in H4 Neuroglioblastoma Cells. [Related pubchem assays: 1827 (Project Summary), 1813 (Primary HTS)]; format: functional
[3] = inhibitors of SNCA 5'UTR-driven reporter translation, confirmation, H4 neuroglioma cells, luminescence (AID 1988); format: functional, cell-based
[4] = cytotoxicity in HEK-293T cells, dose response, cytotoxicity control for BCR NF-kB inhibitor project, luminescence, B-cell screen hits (AID 489021); format: functional, cell-based;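 also: HEK-293T cells carrying an NF-kB luciferase reporter; cells exposed to compound for about 14 hours before viability readout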
[5] = Luminescence Cell-Based Dose Confirmation HTS to Identify Activators of 5'UTR Stem-Loop Driven Alpha-Synuclein mRNA Translation in H4 Neuroglioblastoma Cells. [Related pubchem assays: 1829 (Project Summary), 1814 (Primary HTS)]; format: functional
[6] = Luminescence Cell-Based Dose Response HTS to Identify Activators of Luciferase Translation or Activity in H4 […] Cells. [Related pubchem assays: 1829 (Project Summary), 1814 (Primary HTS)]; format: functional
[7] = test system: H4; test: Luminescence Cell-Based Dose Response HTS to Identify Activators of 5'UTR Stem-Loop Driven Prion Protein mRNA Translation in H4 Neuroglioblastoma Cells. [Related pubchem assays: 1829 (Project Summary), 1814 (Primary HTS)]; format: functional; conditions: Homo sapiens
[8] = target: T1, Heat shock factor protein 1 (Mus musculus, UniProt P38532); test: inhibition of MG132-induced HSE-luciferase signal, confirmation, cell-based, NIH3T3, luminescence, dose retest (AID 2382); format: functional;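 also: NIH3T3 fibroblasts with HSF1-driven luciferase reporter stressed by proteasome inhibitor MG132; luminescence from HSF1-driven luciferase expression after 8 hours of MG132 stress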
T1 sequence (P38532 whole entry): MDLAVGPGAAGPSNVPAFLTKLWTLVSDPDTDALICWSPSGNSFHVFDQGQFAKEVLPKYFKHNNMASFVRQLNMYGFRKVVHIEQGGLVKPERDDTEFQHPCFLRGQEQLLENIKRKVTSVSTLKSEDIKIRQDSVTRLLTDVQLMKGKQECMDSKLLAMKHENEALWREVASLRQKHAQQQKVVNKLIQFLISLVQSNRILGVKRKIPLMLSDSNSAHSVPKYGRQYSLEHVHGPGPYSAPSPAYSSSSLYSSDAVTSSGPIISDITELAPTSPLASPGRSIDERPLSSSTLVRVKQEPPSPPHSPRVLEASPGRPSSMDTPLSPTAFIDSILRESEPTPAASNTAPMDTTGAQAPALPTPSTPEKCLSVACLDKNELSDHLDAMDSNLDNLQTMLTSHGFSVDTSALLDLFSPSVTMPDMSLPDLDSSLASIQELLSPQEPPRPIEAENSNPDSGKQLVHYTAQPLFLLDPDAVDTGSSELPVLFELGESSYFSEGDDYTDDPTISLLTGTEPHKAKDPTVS

[9] = target: T2, Protein skinhead-1 (Caenorhabditis elegans, UniProt P34707); format: functional
T2 sequence (P34707 whole entry): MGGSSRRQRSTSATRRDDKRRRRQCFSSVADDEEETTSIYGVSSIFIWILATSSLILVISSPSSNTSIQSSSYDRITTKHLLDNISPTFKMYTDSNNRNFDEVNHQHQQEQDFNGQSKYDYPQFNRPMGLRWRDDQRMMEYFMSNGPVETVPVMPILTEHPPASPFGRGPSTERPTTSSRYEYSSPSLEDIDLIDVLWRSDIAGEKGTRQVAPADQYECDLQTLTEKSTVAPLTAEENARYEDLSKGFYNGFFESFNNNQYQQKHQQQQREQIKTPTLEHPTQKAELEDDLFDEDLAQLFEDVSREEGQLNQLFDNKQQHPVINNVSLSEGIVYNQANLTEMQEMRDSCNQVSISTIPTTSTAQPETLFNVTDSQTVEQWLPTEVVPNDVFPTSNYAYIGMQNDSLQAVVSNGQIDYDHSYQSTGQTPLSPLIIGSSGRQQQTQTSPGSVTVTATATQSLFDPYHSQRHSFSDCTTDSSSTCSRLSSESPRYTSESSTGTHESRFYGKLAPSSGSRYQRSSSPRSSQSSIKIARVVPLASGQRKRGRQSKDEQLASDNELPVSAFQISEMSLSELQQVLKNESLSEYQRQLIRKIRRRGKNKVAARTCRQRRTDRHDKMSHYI

[10] = target: T3, Aminopeptidase N (Plasmodium falciparum FcB1/Columbia, UniProt O96935); test: P. falciparum M1AAP inhibitors, biochemical, fluorogenic H-Leu-NHMec substrate, 1536-well (AID 1445); set-up: species or system Plasmodium falciparum 3D7, 3D7
T3 sequence (O96935 whole entry): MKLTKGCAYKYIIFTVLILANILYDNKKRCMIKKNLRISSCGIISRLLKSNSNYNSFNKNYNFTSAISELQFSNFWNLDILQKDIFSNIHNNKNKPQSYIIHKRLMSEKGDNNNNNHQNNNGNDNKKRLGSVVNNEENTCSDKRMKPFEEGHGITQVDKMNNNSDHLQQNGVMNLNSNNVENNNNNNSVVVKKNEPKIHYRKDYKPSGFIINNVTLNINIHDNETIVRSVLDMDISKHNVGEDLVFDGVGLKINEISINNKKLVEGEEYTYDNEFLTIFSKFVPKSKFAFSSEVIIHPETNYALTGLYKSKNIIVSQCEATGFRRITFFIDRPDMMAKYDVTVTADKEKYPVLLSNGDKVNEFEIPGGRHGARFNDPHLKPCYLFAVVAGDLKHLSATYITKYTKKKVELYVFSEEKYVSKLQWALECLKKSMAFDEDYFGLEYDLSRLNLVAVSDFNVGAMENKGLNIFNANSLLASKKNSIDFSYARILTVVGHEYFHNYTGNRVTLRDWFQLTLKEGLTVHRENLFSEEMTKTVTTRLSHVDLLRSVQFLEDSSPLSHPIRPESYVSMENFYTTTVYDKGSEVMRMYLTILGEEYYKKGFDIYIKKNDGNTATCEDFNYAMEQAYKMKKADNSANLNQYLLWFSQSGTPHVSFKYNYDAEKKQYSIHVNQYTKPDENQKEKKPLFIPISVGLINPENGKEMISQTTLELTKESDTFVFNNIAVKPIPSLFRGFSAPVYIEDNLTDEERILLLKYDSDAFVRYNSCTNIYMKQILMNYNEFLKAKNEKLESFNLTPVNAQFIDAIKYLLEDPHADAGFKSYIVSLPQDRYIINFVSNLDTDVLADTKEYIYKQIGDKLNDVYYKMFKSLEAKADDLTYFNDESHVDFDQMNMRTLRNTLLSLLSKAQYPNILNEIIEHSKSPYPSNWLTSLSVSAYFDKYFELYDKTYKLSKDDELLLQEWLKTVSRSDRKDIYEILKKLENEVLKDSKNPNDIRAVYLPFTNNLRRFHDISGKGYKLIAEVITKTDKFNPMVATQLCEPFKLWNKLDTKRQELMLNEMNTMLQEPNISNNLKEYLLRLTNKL

[11] = target: Luciferin 4-monooxygenase (Photinus pyralis, UniProt P08659); test: Counter Screen for Luciferase-based Assay Positives. [Related pubchem assays: 620, 618, 411 ]
[12] = test system: HT-1080; test: cytotoxicity in HT1080 fibrosarcoma cells, cell-based, fluorescence readout (AID 620); format: functional; conditions: Homo sapiens
[13] = test system: HEK293; test: NOD1 signaling inhibitors, primary screen, cell-based, luminescence, uHTS (AID 1578); format: functional; conditions: Homo sapiens
[14] = test system: HEK293; test: cells; format: functional, cell-based; conditions: Homo sapiens
[15] = test system: HEK293; test: cells; format: functional, cell-based; conditions: Homo sapiens; remark: listed apart in the source
[16] = test system: HEK293; test: NOD2 signaling inhibitors in MDP-stimulated cells, cell-based, uHTS, luminescence (AID 2001); format: functional; conditions: Homo sapiens
[17] = test system: HEK293; test: inhibitors of LMP1-driven NF-kB reporter, dose response, cell-based, HEK293, luciferase, cherry-pick (AID 588343); format: functional, Homo sapiens; conditions: hek293
[18] = inhibitors of intracellular T. cruzi replication, confirmation, NIH3T3 host cells, beta-gal luminescence (AID 2044); format: functional, cell-based;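 also: intracellular parasites grown in NIH/3T3 mouse fibroblasts as host cells; luminescent beta-galactosidase reporter signal from transgenic T. cruzi replicating inside host cells; inhibitors lower the luminescence signal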
[19] = cytotoxicity toward NIH3T3 fibroblasts, dose response, counter-screen, cell-based, ATP luminescence, mouse fibroblasts (AID 2010); format: functional;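 also: cells exposed to compound for about 90 hours before reading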
[20] = target: T4, Histone-lysine N-methyltransferase NSD2 (Homo sapiens, UniProt O96028); format: biochemical
T4 sequence (O96028 whole entry): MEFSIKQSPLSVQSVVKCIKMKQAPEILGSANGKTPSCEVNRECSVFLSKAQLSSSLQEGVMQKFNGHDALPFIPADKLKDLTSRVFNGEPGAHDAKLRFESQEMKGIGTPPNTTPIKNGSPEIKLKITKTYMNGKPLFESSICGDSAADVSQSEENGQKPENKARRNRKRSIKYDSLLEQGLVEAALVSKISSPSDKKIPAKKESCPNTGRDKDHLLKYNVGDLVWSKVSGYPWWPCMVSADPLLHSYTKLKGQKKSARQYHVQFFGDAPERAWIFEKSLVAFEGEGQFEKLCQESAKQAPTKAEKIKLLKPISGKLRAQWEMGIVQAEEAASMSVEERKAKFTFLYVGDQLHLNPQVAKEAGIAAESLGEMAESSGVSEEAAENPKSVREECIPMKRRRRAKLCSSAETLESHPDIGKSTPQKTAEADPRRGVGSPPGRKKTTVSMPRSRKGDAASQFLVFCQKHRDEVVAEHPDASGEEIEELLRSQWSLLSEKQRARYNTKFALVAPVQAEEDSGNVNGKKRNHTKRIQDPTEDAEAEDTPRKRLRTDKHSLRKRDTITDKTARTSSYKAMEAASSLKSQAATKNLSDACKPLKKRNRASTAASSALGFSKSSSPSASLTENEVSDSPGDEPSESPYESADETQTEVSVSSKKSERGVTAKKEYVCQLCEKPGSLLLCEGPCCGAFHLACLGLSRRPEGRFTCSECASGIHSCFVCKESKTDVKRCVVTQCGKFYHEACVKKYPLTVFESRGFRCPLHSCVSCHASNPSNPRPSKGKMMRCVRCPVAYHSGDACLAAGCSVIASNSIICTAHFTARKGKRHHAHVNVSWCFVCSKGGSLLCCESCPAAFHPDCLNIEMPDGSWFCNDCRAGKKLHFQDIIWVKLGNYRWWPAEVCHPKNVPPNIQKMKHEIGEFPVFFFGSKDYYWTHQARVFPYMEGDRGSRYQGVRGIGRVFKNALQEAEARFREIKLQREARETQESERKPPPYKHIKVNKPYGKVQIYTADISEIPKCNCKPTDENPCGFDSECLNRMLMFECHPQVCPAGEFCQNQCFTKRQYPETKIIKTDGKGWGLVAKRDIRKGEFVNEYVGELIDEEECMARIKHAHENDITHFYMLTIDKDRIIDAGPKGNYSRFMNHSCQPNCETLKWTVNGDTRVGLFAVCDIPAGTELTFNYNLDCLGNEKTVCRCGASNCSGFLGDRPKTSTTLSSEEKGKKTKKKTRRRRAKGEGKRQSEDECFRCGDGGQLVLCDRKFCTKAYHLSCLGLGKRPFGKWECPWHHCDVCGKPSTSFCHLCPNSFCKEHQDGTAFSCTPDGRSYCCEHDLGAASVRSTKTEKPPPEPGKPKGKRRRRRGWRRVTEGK

Sequence of Luciferin 4-monooxygenase (P08659 whole entry): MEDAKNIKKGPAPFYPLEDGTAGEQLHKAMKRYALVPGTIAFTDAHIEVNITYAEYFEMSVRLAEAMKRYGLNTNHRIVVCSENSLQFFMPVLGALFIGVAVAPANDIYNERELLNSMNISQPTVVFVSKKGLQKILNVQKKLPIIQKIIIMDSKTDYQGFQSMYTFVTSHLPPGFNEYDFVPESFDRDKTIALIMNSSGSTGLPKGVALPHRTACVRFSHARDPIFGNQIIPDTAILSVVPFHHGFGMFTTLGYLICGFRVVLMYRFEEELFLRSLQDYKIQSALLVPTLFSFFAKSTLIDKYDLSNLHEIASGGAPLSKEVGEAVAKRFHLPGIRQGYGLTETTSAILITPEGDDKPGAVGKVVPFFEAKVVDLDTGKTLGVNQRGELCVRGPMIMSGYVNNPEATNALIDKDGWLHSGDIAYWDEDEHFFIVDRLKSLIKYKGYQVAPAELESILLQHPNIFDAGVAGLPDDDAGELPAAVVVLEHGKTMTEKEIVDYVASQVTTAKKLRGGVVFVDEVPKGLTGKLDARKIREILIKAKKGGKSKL

| Compound | EC50 [5] | EC50 [6] | EC50 [7] | IC50 [10] | other results |
| --- | --- | --- | --- | --- | --- |
| COc1ccccc1/C=C1\SC(=S)N(CCC(=O)Nc2cc(C)on2)C1=O | – | – | – | – | EC50 [1]: 30 µM (active); EC50 [2]: 27.8 µM (active); EC50 [3]: > 120 µM (not active); IC50 [4]: > 80 µM (inactive) |
| Cc1ccc2c(c1)c(C)c(C)n2CC(O)Cn1nnc2ccccc21 (stereo unspecified) | 20.9 µM (active) | 63.4 µM (active) | 22.3 µM (active) | – | EC50 [8]: > 195 µM (not active); IC50 [9]: > 100 µM (inactive) |
| CCc1cc2c(CN3CCN(C)CC3)cc(=O)oc2cc1O | – | – | – | 47.7 µM (active) | – |
| Cc1c(CCC(=O)O)c(=O)oc2cc3occ(-c4ccccc4)c3cc12 | – | – | – | 26.7 µM (active) | – |
| O=C(Nc1ccc2oc(-c3ccccc3)nc2c1)c1cccs1 | < 0.1 µM (active) | 0.131 µM (active) | > 120 µM (not active) | – | – |
| O=C(COC(=O)c1cc(S(=O)(=O)Nc2ccccc2Cl)ccc1O)Nc1nc2ccccc2s1 | – | – | – | 44.4 µM (active) | – |
| Cc1ccc(C(=O)NC2CCN(CC(=O)Nc3cccc([N+](=O)[O-])c3)CC2)cc1 | – | – | – | 102 µM (active) | – |
| Cc1cccc(-n2nc3c(c2NC(=O)C2CC2)CS(=O)(=O)C3)c1C | > 120 µM (not active) | > 120 µM (not active) | > 120 µM (not active) | – | IC50 [9]: > 100 µM (inactive) |
| CCOc1ccc(-c2nnc(-c3ccco3)o2)cc1 | – | – | – | – | EC50 [11]: < 0.2 µM (active); EC50 [12]: > 50 µM (not active); IC50 [9]: 28.9 µM (active) |
| CCN1CCN(Cc2ccc(NC(=O)c3ccc(C)c(NC(=O)c4ccno4)c3)cc2C(F)(F)F)CC1 | – | – | – | – | EC50 [13]: 7.63 µM (active); IC50 [14]: > 20 µM (inactive); IC50 [15]: > 20 µM (inactive); IC50 [16]: 11.9 µM (inactive); AC50 [17]: 0.0692 µM (active) |
| CCCCN1C(=O)NC(=O)/C(=C(/C)NNC(=O)Nc2ccccc2)C1=O | > 120 µM (not active) | 14.3 µM (active) | > 120 µM (not active) | – | – |
| COc1ccc(-c2ccc(C(C)=O)cc2)cc1[C@H]1[C@H]2C=CC[C@@H](C)[C@@H]2C(=O)N1Cc1ccccc1 | – | – | – | – | EC50 [18]: 1.15 µM (active); EC50 [19]: 18.9 µM (active); IC50 [4]: > 80 µM (inactive) |
| CCOc1ccc(-c2cc(CCCC(=O)NCCCOC)no2)cc1 | – | – | – | – | EC50 [1]: 0.841 µM (active); EC50 [11]: > 100 µM (not active); EC50 [12]: > 50 µM (not active); IC50 [4]: > 80 µM (inactive) |
| CO/C(O)=C1\CSC\C1=N\c1ccccc1NC(=O)c1ccccc1C(=O)O | > 120 µM (not active) | > 120 µM (not active) | 119 µM (active) | – | – |
| O=C(CCCO)N/N=C/c1cc(Br)ccc1O | – | – | – | 21.7 µM (active) | – |
| CCCCN(CC)CCNC(=O)c1cc2c(-c3ccccc3F)nn(C)c2s1 | 8.55 µM (active) | > 120 µM (not active) | > 120 µM (not active) | – | AC50 [20]: > 20 µM (inactive) |
